According to EPA's aquatic toxicity sets:

Experiments:
Daphnia magna = test: 48 h LC50 (-log10 mol/L); higher = more toxic
Tetrahymena pyriformis = test: 48 h IGC50 (-log10 mol/L); higher = more toxic

SMILES | 48 h LC50 (-log10 mol/L) (Daphnia magna) | 48 h IGC50 (-log10 mol/L) (Tetrahymena pyriformis)
CC[C@H]1OC(=O)[C@H](C)[C@@H](O[C@H]2C[C@@](C)(OC)[C@@H](O)[C@H](C)O2)[C@H](C)[C@@H](O[C@@H]2O[C@H](C)C[C@H](N(C)C)[C@H]2O)[C@](C)(O)C[C@@H](C)C(=O)[C@H](C)[C@@H](O)[C@]1(C)O | 3.28 | –
CSc1nc(N)nc(NC(C)(C)C)n1 | 4.29 | –
C[C@]12C=CC(=O)C=C1C(Cl)=C[C@@H]1[C@@H]2[C@@H](O)C[C@@]2(C)[C@H]1CC[C@]2(O)C(=O)CO | 3.96 | –
C=C1C[C@]23C[C@@]1(O)CC[C@H]2[C@@]12C=C[C@H](O)[C@@](C)(C(=O)O1)[C@H]2[C@@H]3C(=O)O | 4.19 | –
Oc1c(Cl)c(Cl)cc(Cl)c1Cl | 5.61 | 5.22
Cc1ccc(C)cc1 | 3.52 | 3.25
COc1ccccc1OCCNCC(O)COc1cccc2[nH]c3ccccc3c12 (stereo not given) | 5.13 | –
c1ccc2c(c1)ccc1oc3ccccc3c12 | 4.74 | –
Cc1ccc2ccccc2c1 | 4.98 | 4.08
O[C@@H](CS)[C@@H](O)CS | 3.76 | –
Clc1ccc(Cl)c(-c2cc(Cl)ccc2Cl)c1 | 6.99 | –
O=[N+]([O-])c1cc(Cl)cc(Cl)c1 | 4.43 | 4.13
CCNC(=S)Nc1ccccc1 | 3.35 | –
CC1(C)[C@H](/C=C(\Cl)C(F)(F)F)[C@@H]1C(=O)O[C@@H](C#N)c1cccc(Oc2ccccc2)c1 | 8.68 | –
Cc1cc(Cl)ccc1OCC(=O)O | 3.05 | –
CNC(=S)NC | 3.83 | 1.89
NC[C@@H]1O[C@H](O[C@H]2[C@@H](O)[C@H](O[C@@H]3[C@@H](O)[C@H](N)C[C@H](N)[C@H]3O[C@H]3O[C@H](CO)[C@@H](O)[C@H](O)[C@H]3N)O[C@@H]2CO)[C@H](N)[C@@H](O)[C@@H]1O | 3.09 | –
CN=C=S | 5.42 | –
CCNc1nc(Cl)nc(NCC)n1 | 3.33 | –
CN(C)c1ccccc1 | 4.38 | 3.28
O=c1[nH]cc(F)c(=O)[nH]1 | 3.72 | –

SMILES | 48 h LC50 (-log10 mol/L) (Daphnia magna) | 48 h IGC50 (-log10 mol/L) (Tetrahymena pyriformis)
Oc1cc(Cl)c(Cl)c(Cl)c1 | 5.46 | –
c1ccc2sc(SSc3nc4ccccc4s3)nc2c1 | 3.62 | –
CN(C)C(=N)N=C(N)N | 1.98 | –
COC(=O)Nc1cccc(OC(=O)Nc2cccc(C)c2)c1 | 4.65 | –
CC1CCCCC1 | 4.82 | –
CC(C)NCC(O)COc1ccc(CC(N)=O)cc1 (stereo not given) | 3.9 | –
O=S1(=O)C=Cc2ccccc21 | 4.07 | –
S=C=NCc1ccccc1 | 6.54 | 5.74
C=C[C@]1(C)C[C@@H](OC(=O)CSC2C[C@H]3CC[C@@H](C2)N3C)[C@]2(C)[C@H](C)CC[C@]3(CCC(=O)[C@H]32)[C@@H](C)[C@@H]1O (stereo not given in full) | 4.11 | –
COC(=O)C1=C(C)NC(C)=C(C(=O)OCC(C)C)C1c1ccccc1[N+](=O)[O-] (stereo not given) | 4.07 | –
CN(C)C(=S)N(C)C | 2.23 | –
Clc1cc(Cl)c(Cl)c(Cl)c1 | 4.87 | –
CCOc1cc(NC(C)=O)ccc1C(=O)OC | 3.07 | –
CCCCCOC(=O)Nc1nc(=O)n([C@@H]2O[C@H](C)[C@@H](O)[C@H]2O)cc1F | 2.63 | –
NC(N)=Nc1nc(CSCC/C(N)=N/S(N)(=O)=O)cs1 | 2.93 | –
Cc1ccc(C(=O)c2cc(O)c(O)c([N+](=O)[O-])c2)cc1 | 4.14 | –
O=P(Oc1ccccc1)(Oc1ccccc1)Oc1ccccc1 | 5.51 | 4.81
CN(C)[C@@H]1C(=O)C(C(N)=O)=C(O)[C@@]2(O)C(=O)C3=C(O)c4c(O)ccc(Cl)c4[C@@](C)(O)[C@H]3C[C@@H]12 | 3.57 | –
O=C(O)c1cc(Oc2ccc(C(F)(F)F)cc2Cl)ccc1[N+](=O)[O-] | 4.26 | –
OCCCl | 2.58 | 1.58
O=Cc1ccc(O)c(O)c1O | 3.67 | 3

SMILES | 48 h LC50 (-log10 mol/L) (Daphnia magna) | 48 h IGC50 (-log10 mol/L) (Tetrahymena pyriformis)
Cc1c(OCC(F)(F)F)ccnc1CS(=O)c1nc2ccccc2[nH]1 (stereo not given) | 4.22 | –
O=[N+]([O-])c1ccc(Cl)c([N+](=O)[O-])c1 | 5.4 | –
CN(C)[C@@H]1C(=O)C(C(N)=O)=C(O)[C@@]2(O)C(=O)C3=C(O)c4c(O)cccc4[C@@](C)(O)[C@H]3C[C@@H]12 | 6.43 | –
Clc1ccc(-c2ccc(Cl)cc2Cl)cc1 | 6.21 | –
ClC=CCCl | 4.32 | –
COCC(=O)N(c1c(C)cccc1C)[C@H](C)C(=O)OC | 3.54 | –
CN(C)C(=S)SSC(=S)N(C)C | 6.06 | –
O=[N+]([O-])c1cccc(Cl)c1Cl | 4.62 | 4.07
Cc1cc(C)cc(C)c1 | 4.3 | –
CC/C(=C(/CC)c1ccc(O)cc1)c1ccc(O)cc1 | 5.37 | –
O=S1c2ccccc2-c2ccccc21 | 4 | –
O=S(=O)(c1ccc(Cl)cc1)c1cc(Cl)c(Cl)cc1Cl | 4.71 | –
CCNC(N)=S | 3.94 | 1.87
COc1ccccc1O | 3.68 | –
ClCCOCCCl | 2.78 | –
S=C=NCCc1ccccc1 | 6.1 | 5.54
CC(F)(Cl)Cl | 3.58 | –
CC(C)=CC1C(C(=O)OCc2cccc(Oc3ccccc3)c2)C1(C)C (stereo not given) | 7.69 | –
CCOP(=O)(SC(C)CC)N1CCSC1=O (stereo not given) | 5.76 | –
CN(C)C(N)=S | 3.39 | –
